Test results from PubChem BioAssay (NCI).
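Exposure lasted 48 hours, with cells grown in 96-well plates and compounds tested at five concentrations. At the TGI there is no net growth.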 Where a SMILES comes first, the peptide text is derived from it. [ ]: non-standard residue; d: D form. The star is where a group is joined. hSer = N[CH](CCO)C(=O)O; Boc = CC(C)(C)OC(=O)*

Experiments:
Experiment in all cases: NCI-60 cell line screen, 48 h
HS 578T breast = system: HS 578T breast
EKVX NSCLC = system: EKVX NSCLC
LOX IMVI melanoma = system: LOX IMVI melanoma
K-562 leukemia = system: K-562 leukemia
OVCAR-8 ovarian = system: OVCAR-8 ovarian
SF-539 CNS = system: SF-539 CNS
HT29 colon = system: HT29 colon
KM12 colon = system: KM12 colon
RXF 393 renal = system: RXF 393 renal
SN12C renal = system: SN12C renal

Compound | TGI (HS 578T breast) [µM] | TGI (EKVX NSCLC) [µM] | TGI (LOX IMVI melanoma) [µM] | TGI (K-562 leukemia) [µM] | TGI (OVCAR-8 ovarian) [µM] | TGI (SF-539 CNS) [µM] | TGI (HT29 colon) [µM] | TGI (KM12 colon) [µM] | TGI (RXF 393 renal) [µM] | TGI (SN12C renal) [µM]
Cc1ccc(N=Nc2c(O)c3ccccc3[nH]c2=O)c(S(=O)(=O)N(C)C)c1 | > 100 | > 100 | > 100 | > 100 | > 100 | > 100 | > 100 | > 100 | > 100 | > 100
COC(=O)OC[C@H]1O[C@@H](n2cc(C)c(=O)[nH]c2=O)CC1OC(=O)OC (some centres not stated) | > 100 | > 100 | > 100 | > 100 | > 100 | > 100 | > 100 | > 100 | > 100 | > 100
COC1/C=C\C=C(/C)C(=O)NC2=CC(=O)C(NCCCl)=C(CC(C)CC(OC)C(O)C(C)/C=C(/C)C1OC(N)=O)C2=O (configuration not stated) | 58.4 | 22.7 | 0.575 | 13.5 | 10.5 | 2.17 | 1.92 | 2.01 | 1.2 | 2.8
CCOC(=O)c1cc2cc(Cc3ccc4[nH]c(C(=O)OCC)cc4c3)ccc2[nH]1 | 72.8 | 78.9 | > 100 | > 100 | 23.6 | 36.3 | > 100 | > 100 | 29.4 | > 100
CN(C)CC1CCC/C(=C\c2ccc(N(C)C)cc2)C1=O (configuration not stated) | 26 | 30.4 | 3.16 | > 100 | 18 | 28.8 | 3.6 | 2.93 | 21.2 | 29.6
O=[N+]([O-])/C(C(Cl)=C(Cl)Cl)=C1\Nc2ccccc2O1 | > 100 | > 100 | > 100 | > 100 | 63.9 | 38.6 | > 100 | > 100 | > 100 | > 100
CCCCCCCCCCCCNC(=O)NCC(OCC)OCC | > 10 | > 10 | > 10 | > 10 | > 10 | > 10 | > 10 | > 10 | > 10 | > 10
COc1c(C2(c3ccc(F)cc3)SCCCS2)c(=O)c1=O | > 100 | > 100 | > 100 | > 100 | > 100 | > 100 | > 100 | > 100 | > 100 | > 100
CC1C(c2ccc(N(C)C)cc2)c2cc3c(cc2OC1N1CCCC1)OCO3 (configuration not stated) | 78 | > 100 | > 100 | 97.3 | > 100 | 60.2 | > 81.9 | > 100 | > 100 | > 100
c1cc(-c2cscc2-c2ccsc2)cs1 | 64.2 | > 100 | > 100 | > 100 |  | 59.5 | > 100 | 38 | > 100 | > 100
CCOC(=O)NNC(=O)NCCNC(=O)NNC(=O)OCC | > 100 | > 100 | > 100 | > 100 | > 100 | > 100 | > 100 | > 100 | > 100 | > 100
C[N+]1(C)CC=C(N2CCOCC2)CC1 | > 10 | > 10 | > 10 | > 10 | > 10 | > 10 | > 10 | > 10 | > 10 | > 10
NC1=CN(CCCO)C2=N/C(=C\c3ccco3)C(=O)N12 | > 100 | > 100 | > 100 | > 100 | > 100 | > 100 | > 100 | > 100 | > 100 | > 100
CSc1n[nH]c(N)c1C(=O)Nc1ccc(Cl)cc1 | > 100 | > 100 | > 100 | > 100 | > 100 | > 100 | > 100 | > 100 | 60.7 | > 100
COc1cc2c(cc1OC)C(=O)N(c1ccc(O)cc1)C2 | > 100 | > 100 | > 100 | > 100 | > 100 | > 100 | > 100 |  | > 100 | > 100
Nc1c(Br)cc(-c2cc(Br)c(N)c(Br)c2)cc1Br | > 100 | > 100 | > 100 | > 100 | > 100 | > 100 | > 100 | > 100 | > 100 | > 100

Compound | TGI (HS 578T breast) [µM] | TGI (EKVX NSCLC) [µM] | TGI (LOX IMVI melanoma) [µM] | TGI (K-562 leukemia) [µM] | TGI (OVCAR-8 ovarian) [µM] | TGI (SF-539 CNS) [µM] | TGI (HT29 colon) [µM] | TGI (KM12 colon) [µM] | TGI (RXF 393 renal) [µM] | TGI (SN12C renal) [µM]
COc1ccc(CN2C(=O)CCC/C=C\[C@H]2CI)cc1 | 33.2 | 22.5 | 34 | > 100 | 27.5 | 26.4 | 21.5 | 23 | 17.2 | 27
COc1ccc(C(=O)C2CC3(CCC2(O)c2ccc(OC)cc2)CC(=O)Nc2ccccc2C3=O)cc1 (configuration not stated) | > 100 | > 100 | > 100 | > 100 | > 100 | > 100 | > 100 |  | > 100 | > 100
COc1ccc2c(O)c3[n+](cc2c1OC)CCc1cc2c(cc1-3)OCO2 | > 100 | > 100 | > 100 | > 100 | > 100 | > 100 | > 100 | > 100 | 85.7 | > 100
COCCC(NC(=O)C(CC(C)C)NC(=O)OC(C)(C)C)C(N)=O (stereo not drawn) (Boc-Leu-[hSer](Me)-NH2; configuration not given here) | > 100 | > 100 | > 100 | > 100 | > 100 | > 100 | > 100 | > 100 | > 100 | > 100
COc1c2nc(CCl)n(C)c(=O)c2c(OC)c2c(=O)n(C)c(CCl)nc12 | 95 | 11.8 | 1.75 | 7.83 | 13.2 | 13.1 | 2.87 | 2.46 | 4.14 | 3.56
CCOn1cc(C[C@@]2(O)C(=O)OC3[C@@H](O)CO[C@@]32O)c2ccccc21 (some centres not stated) | > 100 | > 100 | > 100 | > 100 | > 100 | > 100 | > 100 | > 100 | > 100 | > 100
O=c1c2cc([N+](=O)[O-])ccc2n2n1Cc1ccccc1CC2 | > 100 | 52.5 | > 100 | > 100 | > 100 | > 100 | > 100 | > 100 | > 100 | > 100
O=C(Cc1ccc(Cl)c(Cl)c1)NCCCN1CCN(CCCN2CCCCC2)CC1 | > 100 | 39.3 | 30.2 | 7.5 | > 100 | 28.8 | 29.9 | 31.2 | 31.1 | 39
CCOC(=O)C1(Cc2ccc(C)cc2)Cc2ccc(C)cc2C1=O (configuration not stated) | > 100 | > 100 | > 65 | > 41.4 | > 96.6 | 58.5 | 49.1 | > 72.3 | 29.5 | > 100
O=C(CCSC(CC(=O)c1ccc(Cl)cc1)c1ccc(Cl)cc1)Nc1ccc(Cl)cc1 (configuration not stated) | 64.1 | 25.4 | 18.3 | 18.6 | 29.1 | 32.6 | 24.6 | 12.4 | 28.2 | 24.8
O=C1N[C@H]2c3c(Cl)sc(Cl)c3C(=O)[C@H]2O1 | 43.5 | 27.9 | 13.9 | > 30.7 | 12.2 | 39.9 | 13.8 | > 100 | > 79.8 | > 47.6
COC(=O)C1Cc2c(C)cccc2C1=O (configuration not stated) | > 100 | > 100 | > 100 | > 100 | > 100 | > 100 | > 100 | > 100 | > 100 | > 100
CN(NC(=O)c1ccco1)C1=NCCCCN1 | > 100 | > 100 | > 100 | > 100 | > 100 | > 100 | > 100 | > 100 | > 100 | > 100
Cc1ncc([N+](=O)[O-])n1CCN(C)CCCCn1ccnc1[N+](=O)[O-] | > 100 | > 100 | > 100 | > 100 | > 100 | > 100 | > 100 | > 100 | > 100 | > 100
[N-]=N[N+]#I1OC(C(F)(F)F)(C(F)(F)F)c2ccccc21 | 37.3 | 34 | 77.1 | > 100 | 34.5 | 30.6 | 35.3 | 29 | 30.7 | 30
CCC1(O)C=CC(=O)C=C1 | > 100 | > 100 | 32.4 | > 100 | > 100 | 50.6 | > 100 | 33.5 | 38.2 | > 100
